According to PubChem BioAssay (NCI):
Several values for one entry are separate records, joined by “and”; a condition that tells them apart may be missing. Equal entries are not always repeated.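 The compound was tested at five concentrations on cells cultured in 96-well plates, with a 48-hour exposure period. GI50 is the concentration that inhibits growth by half. TGI marks complete inhibition of growth.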 Where a SMILES comes first, the peptide text is derived from it. The star is where a group is joined. Cbz = O=C(OCc1ccccc1)*

Columns and labels:
Assay in all cases: DTP human tumour cell line panel, 48 h
[1] = test system: 786-0 renal
[2] = test system: CAKI-1 renal
[3] = test system: EKVX NSCLC
[4] = test system: HCT-15 colon
[5] = test system: HOP-62 NSCLC
[6] = test system: LOX IMVI melanoma
[7] = test system: MOLT-4 leukemia
[8] = test system: NCI-H226 lung
[9] = test system: RPMI-8226 leukemia
[10] = test system: UACC-257 melanoma
[11] = test system: UACC-62 melanoma
[12] = test system: MALME-3M melanoma
[13] = test system: OVCAR-4 ovarian
[14] = test system: TK-10 renal

| SMILES | TGI [1] | TGI [2] | TGI [3] | TGI [4] | TGI [5] | TGI [6] | TGI [7] | TGI [8] | TGI [9] | TGI [10] | TGI [11] | TGI [12] | TGI [13] | TGI [14] | GI50 [5] | GI50 [7] | GI50 [8] | GI50 [4] | GI50 [10] |
| --- | --- | --- | --- | --- | --- | --- | --- | --- | --- | --- | --- | --- | --- | --- | --- | --- | --- | --- | --- |
| CN1CCN(/C(N)=C(\C#N)C(=O)Nc2ccc(Cl)cc2)CC1 | > 100 µM | > 100 µM | > 100 µM | > 100 µM | > 100 µM | > 100 µM | > 100 µM | > 100 µM | > 100 µM | > 100 µM | 58.9 µM |  |  |  |  |  |  |  |  |
| c1ccc2c(c1)OCCOCCOc1ccccc1OCCO2 | > 100 µM | > 100 µM | > 100 µM | > 100 µM | > 100 µM | > 100 µM | > 100 µM | > 100 µM | 70.2 µM | > 100 µM | > 100 µM | 88.2 µM | > 100 µM | > 100 µM |  |  |  |  |  |
| O=C(Cn1c2ccc(Br)cc2c2nc3ccccc3nc21)NNC(=S)NC1CCCCC1 | 28.9 µM | 38.6 µM | 43.1 µM | 25.4 µM | 30.6 µM | 24.9 µM | 22.6 µM | 33.6 µM | 26.8 µM | 30 µM | 43.2 µM | 39.5 µM | 41.2 µM | 28.7 µM |  |  |  |  |  |
| COc1ccc2nc3cc(Cl)ccc3c(Sc3ccc(NC(C)=O)cc3)c2c1 | > 20.1 µM | > 50.6 µM | > 23.8 µM |  | > 60.2 µM | 11.4 µM | 84.4 µM | > 30.9 µM | 83.8 µM | > 41 µM | > 42.1 µM | > 51.8 µM | > 52.6 µM | > 51.1 µM |  |  |  |  |  |
| CC(=O)OCC1OC(n2c(C)c(N=Nc3ccc(Cl)cc3)c(C)c(C#N)c2=S)C(OC(C)=O)C(OC(C)=O)C1OC(C)=O (stereo not given) | 42.4 µM | > 100 µM |  | > 100 µM | 51.7 µM | > 100 µM | > 100 µM |  | > 100 µM | > 100 µM | > 100 µM | > 100 µM | > 100 µM | > 100 µM |  |  |  |  |  |
| O=C1C(Br)=CC2(C=C1Br)CCNC1=C2C(=O)c2ncccc2C1=O | 3.11 µM | 3.14 µM | 3.3 µM | 2.64 µM | 1.73 µM | 1.53 µM |  | 3.54 µM | 2.46 µM | 1.89 µM | 1.84 µM | 2.4 µM | 2.48 µM | 4.73 µM |  |  |  |  |  |
| c1ccc2c3[nH]c(c2c1)=Nc1ccc(cc1)-c1nc2ccc(cc2o1)N=c1[nH]c(c2ccccc12)=Nc1ccc2nc(oc2c1)-c1ccc(cc1)N=3 | > 100 µM | > 100 µM | > 100 µM | 25.3 µM | > 100 µM | > 100 µM | > 100 µM | > 100 µM | 86.2 µM | > 100 µM | > 100 µM |  |  | > 100 µM |  |  |  |  |  |
| CC(=O)Nc1c(C(=N)C#N)ncn1CCO | > 100 µM | > 100 µM | > 100 µM | > 100 µM | > 100 µM | > 100 µM |  | > 100 µM | > 100 µM | > 100 µM | > 100 µM | > 100 µM | > 100 µM | > 100 µM |  |  |  |  |  |
| CCOC(=O)CCC(NC(=O)c1ccc(NCc2ccc3nc(-c4ccccc4)c(Cl)nc3c2)cc1)C(=O)OCC (stereo not given) | > 100 µM | > 100 µM | > 100 µM | > 100 µM | > 100 µM | > 100 µM | 44.9 µM | > 100 µM | 81.2 µM |  |  | 26 µM | 90.6 µM | > 100 µM |  |  |  |  |  |
| CCOc1cc(NC(C)=O)ccc1C(=O)NNS(=O)(=O)c1ccc(NC(C)=O)cc1 | > 100 µM | > 100 µM | > 100 µM | > 100 µM | > 100 µM | > 100 µM | > 100 µM | 89.5 µM | 86.4 µM | > 100 µM | > 100 µM | > 100 µM | > 100 µM |  |  |  |  |  |  |
| CC(NC(=O)c1c(O)[nH]c(=S)[nH]c1=O)c1ccc([N+](=O)[O-])cc1 (stereo not given) | > 100 µM | > 100 µM | > 100 µM | > 100 µM | > 100 µM | > 100 µM | 95 µM | > 100 µM | > 100 µM | > 100 µM | > 100 µM |  | > 100 µM | > 100 µM |  |  |  |  |  |
| CC(=O)NC1C(Sc2ncn(C3OC(CO)C(O)C(O)C3NC(C)=O)n2)OC(CO)C(O)C1O (stereo not given) | > 100 µM | > 100 µM | > 100 µM | > 100 µM | > 100 µM | > 100 µM | > 100 µM |  | > 100 µM | > 100 µM | > 100 µM | > 100 µM | > 100 µM | > 100 µM |  |  |  |  |  |
| CCCCCCc1cc2cc(C(=O)Nc3ccc(F)cc3)c(=N)oc2cc1O | 77.6 µM | 13.6 µM | 21.2 µM | 7.62 µM | 12.2 µM | 4.93 µM | 5.59 µM |  | 4.96 µM | 29.2 µM | 8.7 µM | > 100 µM | 23.2 µM |  |  |  |  |  |  |
| COc1ccc(/C(Cl)=C(\C#N)c2ccc(OC)c(OC)c2)cc1OC | > 100 µM | > 100 µM | 94 µM | > 100 µM | > 100 µM | > 100 µM | > 100 µM | > 100 µM | 60.4 µM | > 100 µM | > 100 µM |  | > 100 µM | > 100 µM |  |  |  |  |  |
| O=C(NCCN1CCOCC1)c1ccc(I)cc1 | > 100 µM | > 100 µM | > 100 µM | > 100 µM |  | > 100 µM | > 100 µM | > 100 µM | > 100 µM |  | > 100 µM |  | > 100 µM | > 100 µM |  |  |  |  |  |
| CC(=O)c1ccc2c(c1)C(=O)c1sc(C(C)=O)cc1C2=O | 50 µM | 4.48 µM | 3.43 µM and 2.58 µM | 2.18 µM | 8.16 µM and 7.25 µM | 2.12 µM |  | 2.2 µM and 4.03 µM | 23.8 µM |  |  | 1.2 µM |  | 5.55 µM | 2.35 µM | 0.0664 µM | 1.43 µM |  |  |
| COc1ccc(/C=N/N=C(\N)NO)c(OC)c1C | 67.7 µM | 46.4 µM | 41.9 µM | > 100 µM | 36.7 µM | > 100 µM | > 100 µM | 49.5 µM | > 100 µM | > 100 µM | > 100 µM | 35.2 µM | > 100 µM |  |  |  |  |  |  |
| CC1(C)O[C@H]2OC(CO)C(N=[N+]=[N-])[C@H]2O1 (stereo not given in full) | > 100 µM | > 100 µM | > 100 µM | > 100 µM | > 100 µM | > 100 µM | > 100 µM |  | > 100 µM | > 100 µM | > 100 µM | > 100 µM | > 100 µM | > 100 µM |  |  |  |  |  |
| Oc1c(Br)ccc2cccnc12 | > 43.2 µM | 60.3 µM | > 66.3 µM | > 100 µM | > 100 µM | > 28.5 µM | > 26.9 µM | 38.5 µM | > 27.9 µM |  | 7 µM | > 64.4 µM | > 92.9 µM | > 100 µM |  |  |  |  |  |
| CCC1CC(O)c2c(O)c3c(c(O)c2C1O)C(=O)c1cccc(O)c1C3=O (stereo not given) (tested in a mixture with another compound) | 0.758 µM and 1.22 µM | 0.0706 µM | 0.0864 µM and 0.192 µM |  | 0.197 µM and 1.79 µM | 0.0509 µM | 0.0755 µM and 0.0479 µM | 0.0532 µM | 0.0663 µM | 0.0941 µM and 0.0404 µM | 0.0396 µM | 0.0547 µM | 0.0932 µM and 0.0821 µM |  |  |  |  | 0.0237 µM | 0.0101 µM |
| O=C1/C(=C\c2cccc(Oc3ccccc3)c2)S(=O)(=O)C(c2ccccc2)N1c1cccc(Cl)c1 (stereo not given) | > 100 µM | > 100 µM | > 100 µM | > 100 µM | > 100 µM | 44.8 µM | > 100 µM |  | 78.8 µM | > 100 µM | > 100 µM | > 100 µM | > 100 µM | > 100 µM |  |  |  |  |  |
| CCOC(=O)CCC(NC(=O)OCc1ccccc1)C(=O)NC(CCC(=O)OCC)C(=O)OCC (stereo not given) (Cbz-Glu(OEt)-Glu(OEt)-OEt; configuration not given here) | > 100 µM | > 100 µM | > 100 µM | > 100 µM | > 100 µM | > 100 µM | > 100 µM | > 100 µM | > 100 µM | > 100 µM | > 100 µM | > 100 µM | > 100 µM |  |  |  |  |  |  |
| NCCCNCCCCN1CCOC1=O | > 100 µM | > 100 µM | > 100 µM | > 100 µM | > 100 µM | > 100 µM | > 100 µM | > 100 µM | > 100 µM | > 100 µM | > 100 µM | > 100 µM |  | > 100 µM |  |  |  |  |  |
| COc1cccc(CC(=O)N2CCN(CCCc3ccccc3)CC2)c1 | > 100 µM | > 100 µM | > 100 µM | > 100 µM | > 100 µM | > 100 µM | > 100 µM | > 100 µM | > 100 µM | > 100 µM | > 100 µM |  | > 100 µM | > 100 µM |  |  |  |  |  |
| O=C1OCC2OC(=O)c3cc(O)c(O)c(O)c3-c3c(O)c(O)c(O)c4c3C(=O)OC(C2OC(=O)c2cc(O)c(O)c(O)c2-c2c1cc(O)c(O)c2O)C1OC(=O)C2C4=C(O)C(=O)C23Oc2cc(O)c4c(c2[C@H]13)O[C@H](c1ccc(O)c(O)c1)[C@@H](O)C4 (stereo not given in full) | 56.7 µM | 30.7 µM | 42.7 µM | 44.7 µM | > 100 µM | 38.3 µM | 54 µM | 35.6 µM | 64.4 µM | > 100 µM | 45.6 µM | 72.2 µM | 43.5 µM |  |  |  |  |  |  |
